{"source": "patent US11717556B2", "about": "“Stemness-suppressing composition comprising OCT4 function-inhibiting peptide” (NATIONAL CANCER CENTER, priority 2018, dated 2023)", "key": {"[1]": {"tested_on": "OCT4 S236 phosphorylation in cell lines", "assay": "Immunofluorescence staining of OCT4 phosphorylation after cell permeable peptide treatment", "assay_type": "cell-based", "conditions": "cell permeable peptide 10 uM in cell culture solution, 2 days or more; immunofluorescence staining (FIG. 21)"}, "[2]": {"tested_on": "OCT4 S236 phosphorylation in NCCIT and NTERA-2 cell lines", "assay": "Okadaic acid (PP1 inhibitor) treatment, western blotting and immunofluorescence staining of OCT4 S236 phosphorylation", "assay_type": "cell-based, human", "conditions": "NCCIT and NTERA-2 treated with okadaic acid; western blotting and immunofluorescence (FIGS. 10, 11)"}, "[3]": {"tested_on": "OCT4 phosphorylation in NCCIT cell line", "assay": "Western blotting of OCT4 phosphorylation in NCCIT cell line transformed with peptide vectors", "assay_type": "cell-based, human", "conditions": "vector-expressed peptide, cultured 36 to 48 hours, western blotting quantified with ImageJ (FIG. 16)", "from_the_text": "In order to confirm the link between the phosphorylation of an octamer-binding transcription factor 4 (OCT4) protein and stemness, first, a cell line expressing OCT4 substituted with 236D as an OCT4 S236 phosphorylation mimetic mutant was constructed. For construction of cells, a lentivirus expressing short hairpin RNA ([…], SEQ ID NO: 1) and a puromycin resistance gene in a doxycycline-dependent manner was constructed, and primarily, NCCIT(ATCC® CRL-2073™) and NTERA-2 (ATCC® CRL-1973™), which are cancer stem cell lines, were transfected with the lentivirus. Then, a plasmid recombinant for expressing OCT4 wild type and blasticidine resistance genes, or OCT4 substituted with 236D which is a phosphorylation mimetic of OCT4 and blasticidine resistance genes in a pCAG-Flag-B/S vector was secondarily transfected into the transfected cell line using Lipofectamine 3000 (Thermo Fisher). […]\nAfter an NCCIT cell line was transformed by inserting the vector constructed by the method in Example 5 into the NCCIT cell line using Lipofectamine 3000, and then cultured for 36 hours to 48 hours, western blotting was performed in the same manner as in Example 2.1. The quantification of western blotting was analyzed using ImageJ. […]"}, "PP1 protein": {"tested_on": "PP1 protein", "assay": "Fluorescence polarization binding of FITC-bound peptides to purified PP1 protein", "description": "Peptides in which FITC was bound to Helix-1, Helix-2, and Helix-3 in Example 4 were synthesized.\nThe peptides were uniformly aliquoted at a final concentration of 20 nM into a fluorescence polarization reaction buffer solution (10 mM HEPES pH7.5, 50 mM NaCl, 1 mM DTT, 1 mM EDTA, and 0.0025% Tween 20), a purified PP1 protein was added thereto, and then the resulting mixture was reacted for 30 minutes, and the results of measuring fluorescence polarization using TECAN Infinite F200 Pro are illustrated in FIG. 19.\nThe binding powers of Helix 3-1 (SEQ ID NO: 14), Helix 3-2 (SEQ ID NO: 15), Helix 3-3 (SEQ ID NO: 13), and Helix 3 were compared by narrowing the sequence involved in binding to PP1 in the Helix-3 sequence (SEQ ID NO: 11) consisting of 19 amino acids."}}, "note": "Where no end group is shown, it is not given here."}
{"compound": "11R-GGG-VVRVWFCNRRQK: Cell permeable peptide to which the sequence of Helix-3-3 was linked: RRRRRRRRRRRGGGVVRVWFCNRRQK (Cell penetrating peptide CPP H3-3)", "values": [{"measurement": "phosphorylation of OCT4", "setting": "[1]", "value": "increase in phosphorylation of OCT4"}]}
{"compound": "C=C1[C@@H](O)[C@@H]2O[C@]3(CC[C@H](/C=C/[C@@H](C)[C@@H]4CC(C)=C[C@@]5(O[C@H](C[C@@](C)(O)C(=O)O)CC[C@H]5O)O4)O3)CC[C@H]2O[C@@H]1[C@@H](O)C[C@H](C)[C@H]1O[C@@]2(CCCCO2)CC[C@H]1C", "note": "[okadaic acid]", "values": [{"measurement": "phosphorylation of OCT4", "setting": "[2]", "value": "the phosphorylation of OCT4 was increased"}]}
{"compound": "Helix 1-3: Amino acid sequence NRVRGNLENLFLQCPKPTLQQISHIAQQLGLEKDVVRVWFCNRRQKGKRS; OCT4 function-inhibiting peptide, expressed from pCAG-F-puro vector (Helix 1-3)", "values": [{"measurement": "phosphorylation of OCT4", "setting": "[3]", "value": "the highest"}]}
{"compound": "Helix 1: Amino acid sequence NRVRGNLENL; OCT4 function-inhibiting peptide (also: FITC label (site not given here))", "values": [{"measurement": "phosphorylation of OCT4", "setting": "[3]", "value": "the highest"}]}
{"compound": "Helix 3-3: Amino acid sequence VVRVWFCNRRQK; consisting of 12 amino acids (Helix 3-3)", "values": [{"measurement": "binding power to PP1 compared with Helix-3", "setting": "PP1 protein; FITC-bound peptides, fluorescence polarization (FIG. 20)", "value": "the same binding power as that of Helix-3"}]}
{"compound": "Helix 3: Amino acid sequence KDVVRVWFCNRRQKGKRSS; OCT4 function-inhibiting peptide consisting of 19 amino acids (Helix 3)", "values": [{"measurement": "binding to PP1 (fluorescence polarization values)", "setting": "PP1 protein; FITC-bound peptide 20 nM, purified PP1 protein added, 30 minutes (FIG. 19)", "value": "bound"}]}
